The values below come from patent US20050260158A1, “Human stem cell materials and methods” (priority 2003, published 2005).

What all share (assay type): cell-based, human
The test system of assay [1] is MDSC cultures. Description: Pancreatic islet β-cell-like  differentiation of MDSC cultures, immunostaining for β-cell markers. Conditions: high glucose, absence of serum. As to the method:
Cells. MDSCs cultured in 8-well Lab-Tek chamber slides (Nunc, Naperville, Ill.)) were treated for 3-5 days with 1 mg/ml LPS (Sigma) or […] CD40Ab (R&D System, Minneapolis, Minn.)) in the presence of low (5 mM) or high (25 mM) glucose (Sigma). Human pancreatic islets were digested as described in Ricordi, C., et al., Diabetes 38 Suppl 1, 140-142 (1989) and purified on COBE 2991 (Mediatech, Herndon, Va.) using a continuous Ficoll gradient. Immunostaining. Tissue slides (Biochain, Hayward, Calif.) were immunostained after deparaffinization with AutoDewaxer (Phoenix Biotechnologies, Huntsville, Ala.). The secondary antibodies were peroxidase-, FITC-, or Texas Red® dye-conjugated affiniPure anti-mouse, donkey, goat or Guinea pig antibodies (Jackson ImmunoResearch Laboratories, West Grove, Pa.). […] Isotype-matched antibodies served as controls. Human macrophages served as positive controls. […] Immunostaining for the different antigens and insulin immuno-quantification was done as previously described (Zhao, Y., et al., Proc. Natl. Acad. Sci. USA, 100: 2426-2431 (2003). Non-specific esterase staining was performed using a-Naphthyl Acetate Esterase kit (Sigma).

For assay [2], the system named is insulin gene. Nature of the assay: Nested RT-PCR for insulin in MDSC cultures. Conditions: treated MDSC cultures; markedly increased in high glucose. On the procedure:
Nested RT-PCR. Nested RT-PCR was performed using the QIAGEN® OneStep RT-PCR kit (Qiagen, Valencia, Calif.), with the following: insulin forward-[…] (SEQ ID NO: 1) (PCR product size 324 bp), insulin forward nested-[…] (SEQ ID NO: 2) (PCR product size 266 bp), insulin reverse-[…] (SEQ ID NO: 3), glyceraldehyde phosphate dehydrogenase (GAPDH) forward-[…] (SEQ ID NO: 4) (PCR product size 541 bp), GAPDH forward nested-[…] (SEQ ID NO: 5) (PCR poduct size 282 bp), GAPDH reverse-[…] (SEQ ID NO: 6). Both PCR rounds were done using 40 cycles consisting of 30 seconds at 94° C., 1 minute at 58° C., and 1 minute at 72° C. First round PCR products were diluted 1:100 prior to the nested PCR. Final PCR products were electrophoresed through 1.7% agarose with ethidiumbromide and visualized by UV.

In assay [3] the test system is MDSC cultures. Description: Insulin release from MDSC cultures (insulin ELISA). Conditions: MDSC cultures treated 4-5 days. As to the method:
Insulin release. MDSC cultures incubated in 24-well tissue culture plates (Costar, Cambridge, Mass.) at 70-80% confluence were treated for 4-5 days with LPS or CD40Ab. Insulin secretion was assessed as previously described in Schuit, F., et al., J. Biol. Chem. 272:18572-18579 (1997), using an insulin ELISA kit (Linco Research, MO). When required, the untreated or treated cultures were also pre-incubated for 30 min with […] diazoxide, 10 mM tolbudamide, or […] IBMX.
For orientation: ELISA stands for enzyme-linked immunosorbent assay.

Assay [4] relates to MDSC cultures. Description: Transmission electron microscopy of treated MDSC cultures. As to conditions: treated MDSC cultures in high glucose. On the procedure: Transmission electron microscopy. Untreated or treated MDSC cultures were incubated in high glucose in 8-well Permanox® Slides (Nunc, Naperville, Ill.). Freshly human isolated islets were fixed for 2 h with 2% glutaraldehyde in cacodylate buffer at room temperature and the further sample preparation was done as described in Zhu, X., et al., Proc. Natl. Acad. Sci. (USA), 99:10299-10304 (2002). Fifty randomly selected cells were photographed using the Philips CM-120 transmission electron microscope.

Assay [5] relates to MDSC cultures. Description: LPS-induced macrophage differentiation of MDSC cultures. As to conditions: 1 μg/ml LPS; 12-14-day-old M-CSF-treated cultures with 80-90% MDSCs. From the text:
This transformation was verified by characterization of morphology, lipid staining, increased HLA-DR, HLA-DQ, IL-10 and TNF-α immunostaining (FIG. 3), and cytotoxicity (Table 1).

For lipopolysaccharide [LPS], the “insulin level by quantitative immunostaining” value in assay [1] is given as “about half the level of islet beta-cells”. Also, the insulin gene expression result in assay [2] is on record as “express the insulin gene”. Also, the “insulin release by ELISA” value in assay [3] was “glucose-dependent insulin release”. In assay [4], the “granules seen by transmission electron microscopy” value is recorded as “many halo granules of different sizes”. In assay [5], the “macrophage differentiation of MDSCs” value is given as “transformed the MDSCs into standard macrophages”.
